# Patent US20250026748A1, “N-(5-SUBSTITUTED-[(1,3,4-THIADIAZOLYL) OR (THIAZOLYL)])(SUBSTITUTED)CARBOXAMIDE COMPOUNDS AND USE THEREOF FOR INHIBITING HUMAN POLYMERASE THETA” (Repare Therapeutics Inc., priority 2021, published 2025)
# Biological target: PolQ ATPase enzyme (1-894) (Homo sapiens (Human), UniProt O75417)
# Test: Polθ ATPase enzymatic assay (0.5 nM enzyme concentration), ADP-Glo
# Format: biochemical
# Details: average IC50; 0.5 nM PolQ ATPase enzyme (1-894)
# Procedure, shortened: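 Enzyme (0.5 nM) pre-incubated 15 min at rt with 10-point inhibitor series in 50 mM Tris pH 7.5, 10% glycerol, 5 mM DTT, 10 mM MgCl2, 0.1 mg/ml BSA; reaction started with 20 nM fork DNA and 100 μM ATP, run 180 min at rt. ADP-Glo luminescence; IC50 from 4-parameter variable-slope fit.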
# PolQ ATPase enzyme (1-894), sequence (O75417 1-894): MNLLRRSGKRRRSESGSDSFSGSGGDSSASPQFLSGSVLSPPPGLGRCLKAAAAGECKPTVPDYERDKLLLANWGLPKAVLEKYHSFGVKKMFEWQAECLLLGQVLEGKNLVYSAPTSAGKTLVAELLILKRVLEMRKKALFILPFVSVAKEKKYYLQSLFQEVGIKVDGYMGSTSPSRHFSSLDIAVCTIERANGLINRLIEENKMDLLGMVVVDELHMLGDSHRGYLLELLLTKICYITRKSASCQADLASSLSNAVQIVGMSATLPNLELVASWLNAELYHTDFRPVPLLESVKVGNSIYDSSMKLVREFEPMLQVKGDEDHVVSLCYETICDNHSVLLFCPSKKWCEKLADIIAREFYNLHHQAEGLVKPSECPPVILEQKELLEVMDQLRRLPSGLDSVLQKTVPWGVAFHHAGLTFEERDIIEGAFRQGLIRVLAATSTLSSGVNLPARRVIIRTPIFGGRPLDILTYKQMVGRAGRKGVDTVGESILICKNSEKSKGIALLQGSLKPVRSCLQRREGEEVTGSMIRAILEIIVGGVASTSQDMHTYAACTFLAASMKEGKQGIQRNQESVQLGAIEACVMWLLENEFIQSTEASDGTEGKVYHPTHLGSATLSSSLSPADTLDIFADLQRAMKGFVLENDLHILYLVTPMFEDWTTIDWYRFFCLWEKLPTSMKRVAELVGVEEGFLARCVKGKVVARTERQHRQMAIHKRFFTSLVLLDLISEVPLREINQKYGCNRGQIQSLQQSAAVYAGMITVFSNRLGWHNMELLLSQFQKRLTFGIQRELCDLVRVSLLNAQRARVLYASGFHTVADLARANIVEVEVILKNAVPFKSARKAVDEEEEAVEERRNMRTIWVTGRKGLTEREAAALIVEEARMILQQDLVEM
row,Structure (SMILES),IC50
1,COc1cnc(C(F)F)cc1-c1cc(-c2noc(C)n2)ncc1C(=O)Nc1nnc(C#CC2CC2)s1 [Compound 428],< 0.25 nM
2,COc1cnc(C(F)F)cc1-c1cc(-n2cncn2)ncc1C(=O)Nc1nnc(C#CC2CC2)s1 [Compound 263],< 0.25 nM
3,COc1cnc(C(F)F)cc1-c1cc(N2CCn3nccc3C2=O)ncc1C(=O)Nc1nnc(C#CC2CC2)s1 [Compound 133],< 0.25 nM
4,COc1cnc(C(F)F)cc1-c1cc(C#CC2(OC)CCOCC2)ccc1C(=O)Nc1nnc(C#CC2CC2)s1 [Compound 246],1.1 nM
5,COc1cnc(Cl)cc1-c1cc(-c2cn[nH]c2)ccc1C(=O)Nc1nnc(C#CC2CC2)s1 [Compound 312],0.94 nM
6,COc1cnc(C(F)F)cc1-c1cc(N2CC(=O)N(C)C3(CC3)C2=O)ncc1C(=O)Nc1nnc(C#CC2CC2)s1 [Compound 469],< 0.25 nM
7,Cc1ccc(Cl)cc1-c1cnccc1C(=O)Nc1nnc(C#CC2CC2)s1 [Compound 43],< 0.25 nM
8,COc1cnc(Cl)cc1-c1cn(C)c(=O)cc1C(=O)Nc1nnc(C#CC2CC23CC3)s1 (stereo not drawn) [Compound 107],0.76 nM
9,COc1cnc(C(F)F)cc1-c1cc(-n2cccc(C)c2=O)ncc1C(=O)Nc1nnc(C#CC2CC2)s1 [Compound 437],< 0.25 nM
10,O=C(Nc1ncc(C#CC2CC2)s1)c1cc(=O)n(Cc2nccs2)cc1-c1cc(C(F)F)ccc1Cl [Compound 208],14 nM
11,COc1cnc(C(F)F)cc1-c1cc(Cc2nnc(C)o2)ncc1C(=O)Nc1ncc(C#CC2CC2)s1 [Compound 401],< 0.25 nM
12,COc1cnc(C(F)F)cc1-c1cc(-n2ccnc(C)c2=O)ncc1C(=O)Nc1nnc(C#CC2CC2)s1 [Compound 458],0.1 nM
13,COc1cnc(C(F)F)cc1-c1cc(-c2ccc(=O)n(C)c2)ccc1C(=O)Nc1nnc(C#CC2CC2)s1 [Compound 202],0.29 nM
14,COc1cnc(Cl)cc1-c1cc(-c2ccn(C)n2)ccc1C(=O)Nc1nnc(C#CC2CC2)s1 [Compound 307],< 0.25 nM
15,COc1cnc(Cl)cc1-c1cc(N(C)C(C)=O)ccc1C(=O)Nc1nnc(C#CC2CC2)s1 [Compound 294],0.29 nM
16,COC(=O)N1CCN(c2cc(-c3cc(C(F)F)ncc3OC)c(C(=O)Nc3nnc(C#CC4CC4)s3)cn2)C(=O)C1 [Compound 358],< 0.25 nM
17,COc1cnc(C2CC2)cc1-c1cnccc1C(=O)Nc1nnc(C#CC2CC2)s1 [Compound 79],1.21 nM
18,COc1ccc(C(F)(F)F)cc1-c1cn(C)c(=O)cc1C(=O)Nc1nnc(C#CC2CC2)s1 [Compound 80],2.1 nM
19,COc1cnc(C(F)F)cc1-c1cc(CO)ncc1C(=O)Nc1nnc(C#CC2CC2)s1 [Compound 272],1.2 nM
20,COc1cnc(C(F)F)cc1-c1cc(N2CCO[C@H](C)C2=O)ncc1C(=O)Nc1nnc(C#CC2CC2)s1 [Compound 173],0.41 nM
21,COc1cnc(C(F)F)cc1-c1cc(N2CCCC2=O)ncc1C(=O)Nc1nnc(C#CC2CC2)s1 [Compound 285],4.3 nM
22,COc1ccc(C(F)(F)F)cc1-c1cc(-c2ccn(C)n2)ncc1C(=O)Nc1nnc(C#CC2CC2)s1 [Compound 309],0.99 nM

row,Structure (SMILES),IC50
1,COc1cnc(C(F)F)cc1-c1cnccc1C(=O)Nc1nnc([C@@H]2C[C@H]2c2ccc(C#N)cc2)s1 [Compound 274],0.51 nM
2,COc1cnc(C(F)F)cc1-c1cc(CN2CCN(C)C2=O)ccc1C(=O)Nc1nnc(C#CC2CC2)s1 [Compound 231],1.6 nM
3,COc1cnc(C(F)F)cc1-c1cc(NCCOCC(=O)O)ncc1C(=O)Nc1nnc(C#CC2CC2)s1 [Compound 159],0.79 nM
4,COc1cnc(Cl)cc1-c1cc(C#CC2(O)COC2)ccc1C(=O)Nc1nnc(C#CC2CC2)s1 [Compound 54],< 0.25 nM
5,COc1ncc(Cl)cc1-c1cnccc1C(=O)Nc1nnc(C#CC2CC2)s1 [Compound 344],4.3 nM
6,COc1cnc(C(F)F)cc1-c1cc(C#CC2(O)CCS(=O)(=O)CC2)ccc1C(=O)Nc1nnc(C#CC2CC2)s1 [Compound 264],< 0.25 nM
7,COc1cnc(C(F)F)cc1-c1cc(C#CC2CCOCC2)ncc1C(=O)Nc1nnc(C#Cc2cc(C)[nH]n2)s1 [Compound 378],< 0.25 nM
8,COc1cnc(Cl)nc1-c1cc(-c2ccn(C)n2)ncc1C(=O)Nc1nnc(C#CC2CC2)s1 [Compound 417],3.7 nM
9,COc1ccc(C(F)(F)F)cc1-c1cc(C#CC2CCCOC2)ncc1C(=O)Nc1nnc(C#CC2CC2)s1 (stereo not drawn) [Compound 249],0.77 nM
10,COc1cnc(Cl)cc1-c1cncc(F)c1C(=O)Nc1nnc(C#CC2CC2)s1 [Compound 327],4.1 nM
11,Cc1ccn(-c2cc(-c3cc(C(F)F)ncc3Cl)c(C(=O)Nc3nnc(C#CC4CC4)s3)cn2)c(=O)c1 [Compound 448],< 0.25 nM
12,COc1cnc(C(F)F)cc1-c1cc(N2CCNCC2=O)ncc1C(=O)Nc1nnc(C#CC2CC2)s1 [Compound 364],0.559 nM
13,COc1cnc(C(F)F)cc1-c1cn2cc(C(=O)N(C)C)nc2cc1C(=O)Nc1nnc(C#CC2CC2)s1 [Compound 315],4.5 nM
14,COc1cnc(C(F)F)cc1-c1cc(-n2cccc(F)c2=O)ncc1C(=O)Nc1nnc(C#CC2CC2)s1 [Compound 449],< 0.25 nM
15,COc1cnc(C(F)F)cc1-c1cc(-c2nn(C)cc2C)ncc1C(=O)Nc1nnc(C#CC2CC2)s1 [Compound 351],< 0.25 nM
16,COc1cnc(C(F)F)cc1-c1cc(-c2ccn(C)n2)ccc1C(=O)Nc1nnc(C#CC2CC2)s1 [Compound 280],< 0.25 nM
17,COc1cnc(C(F)F)cc1-c1cc(CC#N)ncc1C(=O)Nc1nnc(C#Cc2ccc(Cl)cc2)s1 [Compound 178],< 0.25 nM
18,Cc1cnn(-c2cc(-c3cc(C(F)F)ncc3Cl)c(C(=O)Nc3nnc(C#CC4CC4)s3)cn2)c(=O)c1 [Compound 470],0.0492 nM
19,COc1cnc(C(F)F)cc1-c1cc(-n2ccc(C(F)(F)F)cc2=O)ncc1C(=O)Nc1nnc(C#CC2CC2)s1 [Compound 445],< 0.25 nM
20,COc1cnc(C(F)F)cc1-c1cc(-c2ccn(C(F)F)n2)ncc1C(=O)Nc1nnc(C#CC2CC2)s1 [Compound 350],< 0.25 nM
21,COc1cnc(Cl)cc1-c1cc(-c2cc[nH]n2)ccc1C(=O)Nc1nnc(C#CC2CC2)s1 [Compound 46],0.2 nM
22,COc1cnc(C(F)F)cc1-c1cc(C#CC(C)(C)CO)ncc1C(=O)Nc1nnc(C#CC2CC2)s1 [Compound 241],0.33 nM

row,Structure (SMILES),IC50
1,COc1cnc(Cl)cc1-c1cn2ncnc2cc1C(=O)Nc1nnc(C#Cc2cc(C)[nH]n2)s1 [Compound 97],2 nM
2,COc1cnc(C(F)F)cc1-c1cc(C[S+](C)[O-])ccc1C(=O)Nc1nnc(C#CC2CC2)s1 (stereo not drawn) [Compound 260],2 nM
3,C#C[C@H]1CC1c1nnc(NC(=O)c2cnc(-n3ccc(C)cc3=O)cc2-c2cc(C(F)F)ncc2OC)s1 (stereo partly drawn) [Compound 431],< 0.25 nM
4,COc1cnc(C(F)F)cc1-c1cc(OC[C@H]2CCCO2)ncc1C(=O)Nc1nnc(C#CC2CC2)s1 [Compound 186],0.79 nM
5,COc1cnc(C(F)F)cc1-c1cc(OC2CCN(C)C2=O)ncc1C(=O)Nc1nnc(C#CC2CC2)s1 (stereo not drawn) [Compound 182],1.2 nM
6,COc1cnc(C(F)F)cc1-c1cc(CN2CCOCC2=O)ccc1C(=O)Nc1nnc(C#CC2CC2)s1 [Compound 227],6.9 nM
7,COc1cnc(C(F)F)cc1-c1cc(C(=O)N(C)C)ccc1C(=O)Nc1ncc(C#CC2CC2)s1 [Compound 257],26 nM
8,COc1cnc(C(F)F)cc1-c1cc(Cc2nnc(C)o2)ccc1C(=O)Nc1nnc(C#CC2CC2)s1 [Compound 244],< 0.25 nM
9,COc1cnc(C(F)F)cc1-c1cc(CCC2(O)CCS(=O)(=O)CC2)ccc1C(=O)Nc1nnc(C#CC2CC2)s1 [Compound 256],2.9 nM
10,COc1cnc(C(F)F)cc1-c1cc(CC(=O)N(C)C)ncc1C(=O)Nc1nc(C)c(C#CC2CC2)s1 [Compound 179],1.6 nM
11,COc1ccc(C(F)F)cc1-c1cn2cc(C(=O)N(C)C)nc2cc1C(=O)Nc1nnc(C#CC2CC2)s1 [Compound 324],0.4 nM
12,COc1cnc(C(F)F)cc1-c1cc(N2CCN(CC3CC3)CC2=O)ncc1C(=O)Nc1nnc(C#CC2CC2)s1 [Compound 386],< 0.25 nM
13,COc1cnc(Cl)cc1-c1cnccc1C(=O)Nc1nnc(C2CC2c2ccc(OC(F)F)cc2)s1 (stereo not drawn) [Compound 62],0.36 nM
14,COc1cnc(C(F)F)cc1-c1cc(-c2cc(C)n(C)n2)ncc1C(=O)Nc1nnc(C#CC2CC2)s1 [Compound 450],0.48 nM
15,COc1ccc(F)cc1-c1cnccc1C(=O)Nc1nnc(C#Cc2cc(C#N)[nH]n2)s1 [Compound 101],< 0.25 nM
16,CNC(=O)Cn1cc(-c2cc(C(F)(F)F)ccc2OC)c(C(=O)Nc2nnc(C#Cc3cc(C)[nH]n3)s2)cc1=O [Compound 82],< 0.25 nM
17,"COc1cnc(C(F)F)cc1-c1cc(-c2ccn(C)n2)ncc1C(=O)Nc1ncc(C#CC2CC2)s1 [Compound 117, N-(5-(cyclopropylethynyl)thiazol-2-yl)-2′-(difluoromethyl)-5′-methoxy-6-(1-methyl-1H-pyrazol-3-yl)-[4,4′-bipyridine]-3-carboxamide]",2 nM
18,COc1cnc(Cl)cc1-c1cn(Cc2nccs2)c(=O)cc1C(=O)Nc1nnc(C#CC2CC2)s1 [Compound 333],3.8 nM
19,COc1ccc(C(F)(F)F)cc1-c1cc(-c2ccn(C)n2)ncc1C(=O)Nc1nnc(C#CC2CC2)s1 [Compound 308],0.42 nM
20,COc1cnc(C(F)F)cc1-c1cc(-c2cnn(C)c2)ncc1C(=O)Nc1nnc(C#CC2CC2)s1 [Compound 252],< 0.25 nM
21,O=C(Nc1ncc(C#CC2CC2)s1)c1cc(=O)n(Cc2ncco2)cc1-c1cc(C(F)F)ccc1Cl [Compound 207],2.6 nM
22,"COc1cnc(C(F)F)cc1-c1cc(-c2ccn(C)n2)ncc1C(=O)Nc1nnc(C#CC2CC2)s1 [Compound 113, N-(5-(cyclopropylethynyl)-1,3,4-thiadiazol-2-yl)-2′-(difluoromethyl)-5′-methoxy-6-(1-methyl-1H-pyrazol-3-yl)-[4,4′-bipyridine]-3-carboxamide]",0.53 nM
